Experimental data from publication PMC11363325, “A Novel Prodrug Strategy Based on Reversibly Degradable Guanidine Imides for High Oral Bioavailability and Prolonged Pharmacokinetics of Broad-Spectrum Anti-influenza Agents” (ACS Central Science, 2024).
Like-named read-outs stand apart in the source and are kept apart here.

Key:
B/Lee/1940 (Lee) = test: microbe, parasite or virus in culture; settings: Influenza B virus, MDCK
in vitro [1] = test: in vitro
[2] = test system: A/Hong Kong/8/1968 (HK; H3N2); test: microbe, parasite or virus in culture; settings: Influenza A virus, H3N2, MDCK
[3] = test system: A/Puerto Rico/8/1934 (PR8; H1N1); test: microbe, parasite or virus in culture; settings: Influenza A virus, MDCK
in vitro [4] = type: in vitro ADME; settings: PAMPA
Procedure: To assess this hypothesis, we conducted the parallel artificial membrane permeability assay (PAMPA) for simulating passive transcellular permeation.[41]
Supplemental Experimental Procedures
In vitro Parallel Artificial Membrane Permeability Assay (PAMPA) […]
evaluated using Parallel Artificial Membrane Permeability Assay Kit (PAMPA-096). Each prodrug and the supplied permeability controls were dissolved in DMSO at the concentration of 10 mM. Then 25 μL of each prodrug solution was mixed with 475 μL of 50 mM sodium phosphate buffer (pH 6.5) to be used as the test solution. GOC/HPMCP and OSC-GCDI/HPCMP particles are dissolved in 50 mM sodium phosphate buffer (5% DMSO, pH 6.5) to achieve a final concentration of 200 µM. In the acceptor plate, 300 μL of 50 mM sodium phosphate buffer (pH 7.4) was added. Subsequently, before adding 200 μL of each test solution to the donor plate, 5 μL of 4% lecithin in dodecane was directly applied to the well membrane of the donor plate. Donor plate was carefully placed into acceptor plate and incubate at r.t. for 16 – 24 h. Donor plate was removed and each solution was collected and filtered by a PVDF filter (0.20 μm pore size). The total prodrug concentration in each plate was determined by HPLC analysis.
In the case of OSC-GCDI(P), partial degradation occurred due to the instability of OSC-GCDI(P) in the buffer. Therefore, the collected solution was further incubated in a 1 M KOH solution for complete hydrolysis. Then, the concentration of GOC was quantified instead.

physchem [5] = type: physicochemical
[6] = cited from earlier work
[7] = In vitro microsomal stability; type: in vitro ADME, rat; settings: for half-life at 100 μM: liver microsomes; for CLint (intrinsic clearance): rat
Procedure: In vitro microsomal stability
Sprague Dawley rat microsomes were obtained from GibcoTM. NADPH was purchased from Sigma-Aldrich (Munich, Germany). Liver microsomes at 0.5 mg/mL concentration (final volume of 200 μL) were incubated in phosphate buffer (pH 7.4), containing 3 mM MgCl2. OSC-GCDI prodrug was dissolved in DMSO to be 40 mM concentration, then each prodrug solution was mixed with prepared buffer to achieve a final concentration of 100 μM (0.25% DMSO). Test compounds were incubated at 37 °C and started by the addition of the 1mM NADPH as cofactor. The samples were taken at 0, 30, 60, and 90 min. The reaction was terminated by addition of ice-cold acetonitrile/methanol (1:1, v/v). After collection, samples were centrifuged (10 min, 16,000 rpm), then the centrifuged supernatant was directly analyzed by using HPLC analysis. Metabolic half-time (t1/2) was calculated by using the equation of first order

physchem [8] = type: physicochemical; settings: pH 7.4
[9] = Stability of OSC-GCDIs in human serum; type: in vitro ADME; settings: 200 μM prodrug, 37 °C
Procedure: (§1) Stability of OSC-GCDIs in serum
(§2) Stability of the GCDI prodrugs were examined by incubating prodrugs in human and BALB/c serum at 37 °C and 200 μM final concentration. Briefly, each prodrug was dissolved in DMSO to be 20 mM concentration, then 10 μL of each prodrug solution was mixed with 990 μL of serum. At different time intervals, 100 μL of the samples were taken and mixed with 100 μL of MeCN. Samples were centrifuged at 14,000 rpm for 10 min at 4 °C and the supernatant was immediately frozen (−80 °C). After thawing

[10] = Stability of OSC-GCDIs in phosphate buffers; type: physicochemical
[11] = Stability of OSC-GCDIs and GOC release in BALB/c serum; type: in vitro ADME; settings: mouse; for GOC released: 200 μM
Procedure: as §1
as §2, with “thawing and shaking, the samples were filtered using a polytetrafluoroethylene (PTFE) filter (0.20 μm pore size) […]” for “thawing”
Release profiles of GOC from the OSC -GCDI prodrugs conjugated to human serum albumin OSC-GCDIs were dissolved in Dulbecco ’s Phosphate-Buffered Saline (DPBS) containing HSA (20 mg/mL) to be concentration of 1 mM, then the mixture was shaken for 10 min at 37 °C. Unbound OSC-GCDIs were removed by washing twice with DPBS using Vivaspin 500 ultrafiltration units (10 kDa cutoff).
Following centrifugation, the samples were redissolved in 1 mL DPBS. Before incubation at 37 °C, 50 µL sample was taken and mixed with 50 µL of 1 M KOH in m ethanol solution to completely hydrolyze the conjugates and determine the initial drug concentration bound to HSA. Subsequently, the samples were incubated at 37 °C and after 1, 2, 4, 24, and 72 h incubation, 50 µL of the samples were taken and mixed with 50 µL MeCN. Then, the concentration of the released GOC was quantified by HPLC. […]

[12] = mice, oral, non-formulated prodrug
[13] = target: human serum albumin (HSA) (Homo sapiens, UniProt P02768); test: Albumin binding of OSC-GCDIs (MALDI-TOF MS); settings: MALDI-TOF MS of trypsin-digested HSA
Procedure: Albumin binding of OSC-GCDIs
OSC-GCDI(P) (0.2 mg/mL or 10 mg/mL) was mixed with HSA (1 mg/mL) in 50 mM Tris -HCl buffer (pH 6.8). The sample was shaken for 20 min at room temperature. Unbound OSC-GCDI(P) was removed by washing three times with distilled water (DW) using Vivaspin 500 ultrafiltration units (10 kDa cutoff).
Following centrifugation, the HSA samples were placed in the condition of 8 M urea, 50 mM Tris-HCl (pH 6.8), and 5 mM DTT at 37 °C for 60 min. Then, 50 mM Tris-HCl (pH 6.8) was added until the urea concentration was less than 1 M. Trypsin Gold was then added to achieve a final protease-to-protein ratio of 1:20 (w/w). The sample was incubated at 37 °C for 60 min. The mass-to-charge ratio of the digested sample was measured by MALDI-TOF (Matrix -Assisted Laser Desorption/Ionization Time -of-Flight) MS using α-cyano-4-hydroxycinnamic acid as the matrix. […]

[14] = authors' response to reviewers, no reference given; cited from earlier work
[15] = set-up: method as in Buss, J. L.; Hasinoff, B. B. J. Mol. Model. 2001, 7, 438–444; settings: amine-based imides; ref Buss, J. L.; Hasinoff, B. B. J. Mol. Model. 2001, 7, 438–444; cited from earlier work
[16] = sodium phosphate buffer, pH 2, phosphate buffer pH 2.0, 37 °C, read-out: T1/2
[17] = sodium phosphate buffer, pH 6.5, phosphate buffer pH 6.5, 37 °C, read-out: T1/2
[18] = sodium phosphate buffer, pH 7.4, phosphate buffer pH 7.4, 37 °C, read-out: T1/2
[19] = sodium phosphate buffer, pH 8, phosphate buffer pH 8.0, 37 °C, read-out: T1/2
[20] = BALB/c serum, 200 μM prodrug, 37 °C, read-out: T1/2
[21] = Sprague Dawley, pH 7.4, rat liver microsome, 100 μM, 37 °C

Sequence of human serum albumin (HSA) (P02768 25-609): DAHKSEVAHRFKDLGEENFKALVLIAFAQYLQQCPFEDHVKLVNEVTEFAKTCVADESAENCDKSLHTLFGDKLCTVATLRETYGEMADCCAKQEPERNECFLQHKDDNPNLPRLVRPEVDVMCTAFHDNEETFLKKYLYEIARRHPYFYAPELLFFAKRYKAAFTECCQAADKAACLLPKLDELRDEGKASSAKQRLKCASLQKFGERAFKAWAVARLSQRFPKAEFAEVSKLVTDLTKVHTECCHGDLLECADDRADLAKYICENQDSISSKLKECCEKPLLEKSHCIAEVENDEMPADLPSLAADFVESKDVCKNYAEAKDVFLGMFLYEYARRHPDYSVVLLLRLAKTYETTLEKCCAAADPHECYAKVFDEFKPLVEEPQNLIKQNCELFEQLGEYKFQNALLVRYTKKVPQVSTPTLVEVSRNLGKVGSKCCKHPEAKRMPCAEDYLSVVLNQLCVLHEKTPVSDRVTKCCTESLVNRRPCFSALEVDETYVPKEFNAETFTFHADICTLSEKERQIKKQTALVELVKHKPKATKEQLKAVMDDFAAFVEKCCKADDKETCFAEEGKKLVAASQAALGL

| SMILES | EC50 (B/Lee/1940 (Lee)) [nM] | EC50 [2] [nM] | EC50 [3] [nM] | Papp at 500 μM (in vitro [4]) [×10⁻⁶ cm/s] | logP (physchem [5]) | logD (physchem [8]) | CC50 at 3 days (in vitro [1]; dog) [nM] | half-life at 200 μM [9] [h] | half-life at 100 μM [10, 16] [h] | half-life at 100 μM [10, 17] [h] | half-life at 100 μM [10, 18] [h] | half-life at 100 μM [10, 19] [h] | half-life at 200 μM [11, 20] [h] | further results |
| --- | --- | --- | --- | --- | --- | --- | --- | --- | --- | --- | --- | --- | --- | --- |
| NC12CC3CC(CC(C3)C1)C2 [AMT, Amantadine, reference compound] | > 100000 | 1560 ± 400 | > 100000 |  |  |  |  |  |  |  |  |  |  | CC50 at 3 days (in vitro [1]): > 100000 nM |
| CCC(CC)O[C@@H]1C=C(C(=O)O)C[C@H](NC(=N)N)[C@H]1NC(C)=O [GOC, guanidino oseltamivir carboxylate, reference compound] | 700 ± 150 | < 5 | 5 ± 1 |  |  |  |  |  |  |  |  |  |  | Effective permeability Pe (in vitro [4]): almost negligible; logP (physchem [5]; octanol–water, room temperature, read-out: log P): -1.35; oral bioavailability ([6]; in vivo, po): < 4%; CC50 (in vitro [1]; dog): > 100000 nM; half-life ([7]; Sprague Dawley, microsomes, pH 7.4, rat liver microsome, 100 μM, 37 °C): 116 h; remaining GOC ([7]; rat liver microsomes, after 90-min incubation): 98.8%; logD (physchem [8]; octanol-phosphate buffer, read-out: log D7.4): -1.49 |
| CCOC(=O)C1=C[C@@H](OC(CC)CC)[C@H](NC(C)=O)[C@@H](N)C1 [OS-P, Oseltamivir phosphate, reference compound] |  |  |  | 2.27 | 0.22 | -0.42 |  |  |  |  |  |  |  | oral bioavailability ([6]; authors' response to reviewers, no reference given): 80%; oral bioavailability ([6]; in vivo, po): > 80%; half-life ([6]; in vivo): less than 1 day |
| CCC(CC)O[C@@H]1C=C(C(=O)O)C[C@H](N)[C@H]1NC(C)=O [OSC, oseltamivir carboxylate, reference compound] | 1290 ± 250 | < 5 | 100 ± 10 |  |  |  | > 100000 |  |  |  |  |  |  |  |
| CCCCC1CC(=O)N(C(=N[C@H]2CC(C(=O)O)=C[C@@H](OC(CC)CC)[C@@H]2NC(C)=O)N2C(=O)CC(CCCC)C2=O)C1=O (some centres unmarked) [OSC-GCDI(B)] | 72400 ± 1350 | 40 ± 10 | 90 ± 10 | 4.5 | 1.83 | 0.91 | > 100000 | 0.875 | > 24 | > 24 | 7.7 | 2.62 | 0.285 | increase of lipophilicity of GOC via the GCDI modification (based on P) (physchem [5]): 2082 fold |
| CCC(CC)O[C@@H]1C=C(C(=O)O)C[C@H](N=C(N2C(=O)[C@H]3CCCC[C@H]3C2=O)N2C(=O)[C@H]3CCCC[C@H]3C2=O)[C@H]1NC(C)=O [OSC-GCDI(C)] | 2210 ± 200 | < 5 | 10 ± 10 | 2.99 | 1.33 | 0.46 | > 100000 | 0.437 | > 24 | 10.5 | 1.36 | 0.447 | 0.397 |  |
| CCC(CC)O[C@@H]1C=C(C(=O)O)C[C@H](N=C(N2C(=O)CC(C)(C)C2=O)N2C(=O)CC(C)(C)C2=O)[C@H]1NC(C)=O [OSC-GCDI(D)] | 13700 ± 2850 | 30 ± 10 | 70 ± 10 | 1.66 | 0.98 | -0.32 | > 100000 | 1.95 | > 24 | > 24 | 8.25 | 2.69 | 2.63 | half-life at 100 μM ([10]; buffer, pH 7.4, half-life): > 8 h; T1/2 ([10]; phosphate buffer pH 7.4, 37 °C): 8.252 h; half-life at 100 μM [7, 21]: 6.42 h; CLint (intrinsic clearance) ([7]; microsomes): 3.60; half-life at 200 μM ([11]; BALB/c, serum): > 1.67 h |
| CCC(CC)O[C@@H]1C=C(C(=O)O)C[C@H](N=C(N2C(=O)c3ccccc3C2=O)N2C(=O)c3ccccc3C2=O)[C@H]1NC(C)=O [OSC-GCDI(P)] | 2260 ± 400 | 10 ± 10 | 30 ± 10 | 3.88 ± 0.31 | 1.61 | 1.01 | > 100000 | 0.0217 | 1.57 | 1.47 | 0.235 | < 0.0167 | 0.0217 | Effective permeability Pe (in vitro [4]; 500 μM): 3.07 ×10⁻⁶ cm/s; plasma concentration of the prodrug [12]: below detection limit; T1/2 ([10]; phosphate buffer pH 2.0, 37 °C): 1.56 h; T1/2 ([10]; phosphate buffer pH 6.5, 37 °C): 1.46 h; half-life at 100 μM [7, 21]: 0.295 h; CLint (intrinsic clearance) ([7]; microsomes): 78.2; covalent conjugation to HSA [13]: covalent adducts; GOC released ([11]; BALB/c, 30 min): 37%; GOC released ([11]; BALB/c, 24 h): 68%; half-life at 200 μM ([11]; BALB/c, serum): 0.0217 h |
| C=CC(=O)O [acrylic acid] |  |  |  |  |  |  |  |  |  |  |  |  |  | pKa [14]: 4.3 |
| O=C1C=CC(=O)N1 [maleimide] |  |  |  |  |  |  |  |  |  |  |  |  |  | hydrolysis rate compared to succinimide [15]: 300 times faster |
| O=C1NC(=O)c2ccccc21 [phthalimide] |  |  |  |  |  |  |  |  |  |  |  |  |  | hydrolysis rate compared to succinimide [15]: 100 times faster |
